Here are results for three compounds from ChEMBL document CHEMBL1155854, “Conformationally constrained farnesoid X receptor (FXR) agonists: Naphthoic acid-based analogs of GW 4064” (Bioorg Med Chem Lett, 2008).

In assay [1] the target is T1, Bile acid receptor (Homo sapiens) (UniProt Q96RI1).
T1 sequence (whole entry): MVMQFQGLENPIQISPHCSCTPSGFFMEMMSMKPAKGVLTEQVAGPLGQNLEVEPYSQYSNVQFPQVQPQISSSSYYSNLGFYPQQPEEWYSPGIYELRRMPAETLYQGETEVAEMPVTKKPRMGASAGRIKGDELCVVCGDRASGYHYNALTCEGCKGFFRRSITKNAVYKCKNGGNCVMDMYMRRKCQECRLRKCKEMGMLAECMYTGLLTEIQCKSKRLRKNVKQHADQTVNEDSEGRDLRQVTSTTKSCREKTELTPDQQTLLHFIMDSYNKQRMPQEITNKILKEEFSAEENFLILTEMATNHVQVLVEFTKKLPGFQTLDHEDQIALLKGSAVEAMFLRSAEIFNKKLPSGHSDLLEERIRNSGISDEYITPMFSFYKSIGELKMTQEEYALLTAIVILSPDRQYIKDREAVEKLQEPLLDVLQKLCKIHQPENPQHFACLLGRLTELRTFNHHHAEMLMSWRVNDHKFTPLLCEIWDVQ
Briefly: Agonist activity at FXR expressed in african green monkey CV1 cells by luciferase reporter transient transfection assay relative to GW-4064. It counts as functional, cell-based. Particulars: CV-1. Background: In a reporter assay the amount or activity of a reporter protein is the signal.

Assay [2] addresses T2, Bile acid receptor (Homo sapiens, UniProt Q96RI1).
T2 sequence (Q96RI1 whole entry): T1 sequence (whole entry)
Briefly: Agonist activity at FXR expressed in african green monkey CV1 cells by luciferase reporter transient transfection assay. It counts as functional, cell-based, CV-1.

For assay [3], the target named is T1, Bile acid receptor (Homo sapiens). Briefly: Agonist activity at FXR assessed as receptor-SRC-1 peptide interaction by FRET assay relative to GW-4064. It counts as functional.
Assay [4] deals with T2, Bile acid receptor. Briefly: Agonist activity at FXR assessed as receptor-SRC-1 peptide interaction by FRET assay. It counts as functional.

As a reminder, the EC50 is the midpoint of the concentration-response curve. Turning to `CC(C)c1onc(-c2c(Cl)cccc2Cl)c1COc1ccc(-c2ccc3ccc(C(=O)O)cc3c2)cc1`, the %max in assay [1] stood at 90%; in assay [3], 69%. The results for the EC50 on Bile acid receptor [2] and on Bile acid receptor [4] were 500 nM and 420 nM, respectively.

With `CC(C)c1onc(-c2c(Cl)cccc2Cl)c1COc1ccc(-c2ccc3cccc(C(=O)O)c3c2)cc1`, the %max in assay [1] was found to be 27%; in assay [3] it was 52%. Besides, the EC50 at Bile acid receptor [2] turned out to be 3300 nM; on Bile acid receptor [4], 2300 nM.

Regarding `CC(C)c1onc(-c2c(Cl)cccc2Cl)c1COc1ccc(-c2ccc3cc(C(=O)O)ccc3c2)cc1`, the %max was 87% in assay [1] and 90% in assay [3]. The EC50 was 45 nM on Bile acid receptor [2] and 100 nM at Bile acid receptor [4].
